In publication PMC10445290, “Enantiomeric Fractions Reveal Differences in the Atropselective Disposition of 2,2′,3,5′,6-Pentachlorobiphenyl (PCB 95) in Wildtype, Cyp2abfgs-Null, and CYP2A6-Humanized Mice” (Chemical Research in Toxicology, 2023):
Like-named read-outs stand apart in the source and are kept apart here.

Assay: Levels of PCB 95 and its hydroxylated metabolites in adipose, blood, brain and liver 24 h after a single oral dose (GC-MS/MS)
Type: in vivo, mice
Conditions: 1 mg/kg, single oral PCB 95 1.0 mg/kg, mean ± SD; for concentration at 24 h: mouse, po
Experimental: Adult male and female wild-type (WT) C57BL/6 mice, KO, and KI mice (4 months old) were exposed to racemic PCB 95. Mice were randomly assigned to exposure groups and received a single oral dose of PCB 95 (1.0 mg/kg) in stripped corn oil (10 mL/kg; lot# A0395699; cat# 801-03-7; Fisher Scientific) via gavage (5–7 mice per group). Control animals received corn oil alone (1–3 mice per group) to assess the potential background contamination with PCB 95. Animals were euthanized 24 h after PCB 95 exposure. Blood was collected from the heart and placed in pre-weighed glass vials with 80 μL of ethylenediaminetetraacetic acid solution (EDTA, 7.5%, w/w). The amount of blood in each vial was determined by weight prior to sample extraction. Adipose, brain, and liver tissues were excised from each animal and individually wrapped in aluminum foil. Samples were stored at −80 °C in separate plastic bags and shipped on dry ice to the University of Iowa for analysis.
PCB 95 and its hydroxylated metabolites were extracted from adipose (0.06 ± 0.01 g), brain (0.19 ± 0.03 g) and liver tissues (0.49 ± 0.07 g) by pressurized liquid extraction (PLE) with a Dionex ASE200 system (Dionex, Sunnyvale, CA, USA).[45] Tissues were homogenized with 2 g of pre-cleaned diatomaceous earth (Thermo Fisher Scientific, Pittsburgh, PA, USA) and placed in extraction cells loaded with 10 g of pre-extracted Florisil (60–100 mesh, Fisher Scientific, Pittsburgh, PA, USA). Tissue samples were then spiked with recovery standards [50 ng of PCB 117 in 50 μL of isooctane and 50 ng of 4′-159 (2′,3,3′,5,5′,6′-hexachlorobiphenyl-4-ol) in 50 μL of methanol]. For ongoing precision recovery (OPR) samples; recovery standard, internal standard, PCB 95, and its metabolites (50 ng each) were spiked to the method blank (DE only) and tissues from control animals. Cells were extracted with hexane–dichloromethane–methanol (48:43:9, v/v/v) at 100 °C and 1500 psi (10 MPa), with preheat equilibration for 6 min, 60% of cell flush volume, and 1 static cycle of 5 min. The extracts were concentrated to approximately 1 mL with a TurboVap II (Biotage, LLC, NC, USA) and transferred to new glass tubes with 1 mL of hexane. The solvent was evaporated to near dryness under a gentle stream of nitrogen, and extracts were redissolved in 1 mL of hexane.
PCB 95 and its hydroxylated metabolites were extracted from whole blood (0.45 ± 0.13 g) using a published liquid–liquid extraction procedure.[29] Briefly, blood samples were thawed, and 3 mL of aqueous 1% KCl solution was added to each sample. Recovery standards (50 ng of PCB 117 in 50 μL of isooctane and 50 ng of 4′-159 in 50 μL of methanol) were spiked to all samples, including OPR samples, before extraction. Subsequently, 1 mL of 6 M HCl, 5 mL of 2-propanol, and 5 mL of 1:1 hexane–MTBE mixture (v/v) were added to the blood samples. The samples were inverted for 5 min and centrifuged at 1690g for 5 min to facilitate the phase separation. Next, the organic phases were transferred to new glass tubes, and the aqueous phases were re-extracted with 3 mL of hexane. Next, three mL of aqueous 1% KCl were added to the combined organic extracts, and samples were inverted and centrifuged as described above. The organic phase was transferred to a new tube, and the aqueous phase was re-extracted with 3 mL of hexane. The combined organic extracts were evaporated to near dryness using a Savant SpeedVac SPD210 (Thermo Scientific, Waltham, MA, US), and each sample was reconstituted with 0.5 mL of hexane.
Five drops of methanol and 0.5 mL of diazomethane (CH2N2; about 0.1 mmol) in diethyl ether were added to the tissue or blood extracts to derivatize the OH-PCBs.[45] Diazomethane rapidly converts the phenolic hydroxyl groups of OH-PCBs to methoxy groups (i.e., −OH → −OCH3). All samples were stored at 4 °C for approximately 16 h. Excess diazomethane evaporated under a gentle stream of nitrogen in a fume hood, followed by adding 0.5 mL of hexane. […]

[1] = female, C57BL/6 (wild-type), adipose, FWT, female wildtype mice, read-out: Levels in adipose
[2] = female, C57BL/6 (wild-type), liver, FWT, female wildtype mice, read-out: Levels in liver
[3] = female, C57BL/6 (wild-type), whole blood, FWT, female wildtype mice, read-out: Levels in blood
[4] = female, CYP2A6-humanized (KI), liver, FKI, female CYP2A6-humanized mice, read-out: Levels in liver
[5] = female, CYP2A6-humanized (KI), whole blood, FKI, female CYP2A6-humanized mice, read-out: Levels in blood
[6] = female, Cyp2abfgs-null (KO), liver, FKO, female Cyp2abfgs-null mice, read-out: Levels in liver
[7] = female, Cyp2abfgs-null (KO), whole blood, FKO, female Cyp2abfgs-null mice, read-out: Levels in blood
[8] = male, C57BL/6 (wild-type), liver, MWT, male wildtype mice, read-out: Levels in liver
[9] = male, C57BL/6 (wild-type), whole blood, MWT, male wildtype mice, read-out: Levels in blood
[10] = male, CYP2A6-humanized (KI), liver, MKI, male CYP2A6-humanized mice, read-out: Levels in liver
[11] = male, CYP2A6-humanized (KI), whole blood, MKI, male CYP2A6-humanized mice, read-out: Levels in blood
[12] = male, Cyp2abfgs-null (KO), adipose, MKO, male Cyp2abfgs-null mice, read-out: Levels in adipose
[13] = male, Cyp2abfgs-null (KO), liver, MKO, male Cyp2abfgs-null mice, read-out: Levels in liver
[14] = male, Cyp2abfgs-null (KO), whole blood, MKO, male Cyp2abfgs-null mice, read-out: Levels in blood
[15] = female, C57BL/6 (wild-type), brain, FWT, female wildtype mice, read-out: Levels in brain
[16] = female, CYP2A6-humanized (KI), adipose, FKI, female CYP2A6-humanized mice, read-out: Levels in adipose
[17] = female, Cyp2abfgs-null (KO), adipose, FKO, female Cyp2abfgs-null mice, read-out: Levels in adipose
[18] = male, C57BL/6 (wild-type), adipose, MWT, male wildtype mice, read-out: Levels in adipose
[19] = male, CYP2A6-humanized (KI), adipose, MKI, male CYP2A6-humanized mice, read-out: Levels in adipose

In the case of `Oc1c(Cl)cc(Cl)c(-c2cc(Cl)ccc2Cl)c1Cl` [3-103, 2,2',4,5',6-pentachlorobiphenyl-3-ol], the concentration at 24 h [1] is reported as 0.7 ng/g, the concentration at 24 h [2] is reported as 1.2 ± 0.4 ng/g and the concentration at 24 h [3] is reported as 1 ± 0.5 ng/g. It also gave a concentration at 24 h [4] of 1 ± 0.4 ng/g, a concentration at 24 h [5] of 1.1 ± 1.2 ng/g and a concentration at 24 h [6] of 1.8 ± 0.4 ng/g. The concentration at 24 h [7] was 0.8 ± 0.3 ng/g, the concentration at 24 h [8] was 0.7 ± 0.3 ng/g and the concentration at 24 h [9] was 0.6 ± 0.2 ng/g. The concentration at 24 h [10] was 0.6 ± 0.2 ng/g, the concentration at 24 h [11] was 0.4 ± 0.1 ng/g and the concentration at 24 h [12] was 1.5 ± 0.7 ng/g. For the same molecule, the concentration at 24 h [13] was 1 ± 0.4 ng/g and the concentration at 24 h [14] was 0.5 ± 0.1 ng/g.

Molecule `Oc1cc(Cl)c(-c2c(Cl)ccc(Cl)c2Cl)cc1Cl` [4'-95] has a Levels in liver (FKO, female Cyp2abfgs-null mice) of 8.5 ng/g tissue, a concentration at 24 h [1] of 1.4 ± 0.6 ng/g and a concentration at 24 h [15] of 0.3 ng/g. It also gave a concentration at 24 h [2] of 3.7 ± 1.8 ng/g, a concentration at 24 h [3] of 2.2 ± 1 ng/g and a concentration at 24 h [16] of 1.1 ± 0.3 ng/g. The concentration at 24 h [4] was 4.5 ± 2.6 ng/g, the concentration at 24 h [5] was 3.4 ± 2.5 ng/g and the concentration at 24 h [17] was 1.5 ± 0.4 ng/g. It also gave a concentration at 24 h [6] of 8.5 ± 3.9 ng/g, a concentration at 24 h [7] of 2.2 ± 1.2 ng/g and a concentration at 24 h [18] of 2.1 ± 0.8 ng/g. For the same molecule, the concentration at 24 h [8] was 5.7 ± 2.8 ng/g, the concentration at 24 h [9] was 3.5 ± 1.1 ng/g and the concentration at 24 h [19] was 1.1 ± 0.2 ng/g. For the same molecule, the concentration at 24 h [10] was 3.8 ± 2.1 ng/g, the concentration at 24 h [11] was 1.3 ± 0.7 ng/g and the concentration at 24 h [12] was 2.5 ± 1.7 ng/g. It also gave a concentration at 24 h (male, Cyp2abfgs-null (KO), brain, MKO, male Cyp2abfgs-null mice, read-out: Levels in brain) of 0.2 ng/g, a concentration at 24 h [13] of 7.7 ± 3.6 ng/g and a concentration at 24 h [14] of 2.8 ± 0.9 ng/g.

`Oc1c(O)c(Cl)c(-c2cc(Cl)ccc2Cl)c(Cl)c1Cl` [4,5-95, 2,2',3,5',6-pentachlorobiphenyl-4,5-diol] gave a concentration at 24 h [1] of 0.9 ± 0.2 ng/g, a concentration at 24 h [2] of 2.2 ± 0.9 ng/g and a concentration at 24 h [3] of 5.2 ± 1.9 ng/g. For the same molecule, the concentration at 24 h [16] was 1 ± 0.6 ng/g, the concentration at 24 h [4] was 1.7 ± 0.3 ng/g and the concentration at 24 h [5] was 5.2 ± 4.8 ng/g. It also gave a concentration at 24 h [17] of 1.6 ng/g, a concentration at 24 h [6] of 1.2 ± 0.7 ng/g and a concentration at 24 h [7] of 1.4 ± 0.7 ng/g. For the same molecule, the concentration at 24 h [18] was 0.9 ± 0.2 ng/g, the concentration at 24 h [8] was 3.4 ± 1.2 ng/g and the concentration at 24 h [9] was 9.1 ± 2.6 ng/g. The concentration at 24 h [19] was 0.7 ± 0.2 ng/g, the concentration at 24 h [10] was 1.7 ± 0.8 ng/g and the concentration at 24 h [11] was 3.6 ± 1.3 ng/g. It also gave a concentration at 24 h [12] of 1.9 ± 0.8 ng/g, a concentration at 24 h [13] of 2.8 ± 1.6 ng/g and a concentration at 24 h [14] of 5.3 ± 3.8 ng/g.

`Oc1cc(Cl)c(-c2cc(Cl)ccc2Cl)c(Cl)c1Cl` [4-95, 2,2',3,5',6-pentachlorobiphenyl-4-ol] showed a Levels in liver (FKI, female CYP2A6-humanized mice) of 0.4 ng/g tissue, a concentration at 24 h [1] of 0.4 ± 0.1 ng/g and a concentration at 24 h [2] of 1 ± 0.6 ng/g. It also gave a concentration at 24 h [3] of 1.5 ± 0.5 ng/g, a concentration at 24 h [4] of 0.4 ± 0.1 ng/g and a concentration at 24 h [5] of 1 ± 0.8 ng/g. It also gave a concentration at 24 h [6] of 0.4 ± 0.3 ng/g, a concentration at 24 h [7] of 0.4 ± 0.3 ng/g and a concentration at 24 h [18] of 0.5 ± 0.3 ng/g. It also gave a concentration at 24 h [8] of 2 ± 0.8 ng/g, a concentration at 24 h [9] of 3.2 ± 1.1 ng/g and a concentration at 24 h [19] of 0.3 ng/g. For the same molecule, the concentration at 24 h [10] was 0.8 ± 0.5 ng/g, the concentration at 24 h [11] was 1.1 ± 0.6 ng/g and the concentration at 24 h [12] was 0.4 ± 0.1 ng/g. For the same molecule, the concentration at 24 h [13] was 1.1 ± 0.9 ng/g and the concentration at 24 h [14] was 1.5 ± 0.8 ng/g.

With `Oc1cc(Cl)c(Cl)c(-c2cc(Cl)ccc2Cl)c1Cl` [5-95, 2,2',3,5',6-pentachlorobiphenyl-5-ol] the concentration at 24 h [1] was 1.3 ± 1.1 ng/g, the concentration at 24 h [15] was 0.25 ± 0.02 ng/g and the concentration at 24 h [2] was 3.8 ± 1.6 ng/g. The concentration at 24 h [3] was 0.9 ± 0.6 ng/g, the concentration at 24 h [16] was 1.1 ± 0.4 ng/g and the concentration at 24 h [4] was 5.5 ± 3.1 ng/g. The concentration at 24 h [5] was 1.9 ± 1.6 ng/g, the concentration at 24 h [17] was 1 ± 0.4 ng/g and the concentration at 24 h [6] was 6.2 ± 1.1 ng/g. It also gave a concentration at 24 h [7] of 0.7 ± 0.3 ng/g, a concentration at 24 h [18] of 1.8 ± 1 ng/g and a concentration at 24 h [8] of 3.3 ± 1.6 ng/g. The concentration at 24 h [9] was 1.1 ± 0.3 ng/g, the concentration at 24 h [19] was 0.8 ± 0.5 ng/g and the concentration at 24 h [10] was 3.3 ± 2.1 ng/g. It also gave a concentration at 24 h [11] of 0.6 ± 0.3 ng/g, a concentration at 24 h [12] of 3.5 ± 4.8 ng/g and a concentration at 24 h [13] of 3.7 ± 1.6 ng/g. The concentration at 24 h [14] was 0.7 ± 0.3 ng/g.
